Laboratory results reported in US9944927B2, “Therapeutic applications of p53 isoforms in regenerative medicine, aging and cancer” (The United States of America as Represented by the …, priority 2007, dated 2018).

Assays:
Assay type in all cases: cell-based, human
[1] = system: p21^WAF1 and MDM2; assay: immunoblot of p53 transcriptional targets p21WAF1 and MDM2; settings: siRNA-transfected early-passage MRC-5 and WI-38, day 7
Method: Cells were lysed in RIPA buffer [10 mM Tris-HCl, pH 7.5, 150 mM NaCl, 0.1% SDS, 0.1% sodium deoxycholate, 1 mM EDTA, 1% NP-40, complete protease inhibitors (Roche), phosphatase inhibitor cocktail 1 and 2 (Sigma)]. Lysates were separated by SDS-PAGE and transferred to nitrocellulose membranes (BIO-RAD) Immunoblot analysis was accomplished according to standard procedures using ECL detection (Amersham Bioscience) or SuperSignal West Dura Extended Duration system (PIERCE).
A polyclonal antibody specifically recognizing Δ133p53 (MAP4) was raised at Moravian Biotechnology (Brno, Czech Republic) in rabbits injected with a mixture of peptides MFCQLAKTC (SEQ ID NO:13) and FCQLAKTCP (SEQ ID NO:14), which were synthesized as Multiple Antigenic Peptide by G. Bloomberg (University of Bristol, Bristol, UK). […]
Cells or tissues were lysed in RIPA buffer [10 mM Tris-HCl, pH 7.5, 150 mM NaCl, 0.1% SDS, 0.1% sodium deoxycholate, 1 mM EDTA, 1% NP-40, complete protease inhibitors (Roche, Indianapolis, Ind.), phoshatase inhibitor cocktail 1 and 2 (Sigma-Aldrich)]. […] The quantitative analysis of the immunoblot data was performed using the ImageJ 1.40 g software (on the world wide web at rsb.info.nih.gov/ij/). […]

[2] = system: MRC-5 and WI-38 fibroblasts; assay: BrdU incorporation assay; settings: siRNA-transfected early-passage MRC-5 and WI-38, day 7; 10 μM BrdU 24 h
Method: (§1) For cell proliferation assay, 2.4×10^5 cells per well were plated into 12-well plates. These cells were collected and counted daily for a week using a hematocytometer. The experiments were performed at least twice and data at each time point were in triplicate. For examining cellular replicative lifespan, the number of cells was counted at each passage, and the number of population doublings (PDL) achieved between passages was determined by log2 (number of cells obtained/number of cells inoculated) (Michishita, E. et al., Mol. Biol. Cell 16:4623 (2005); Pereira-Smith, O. M. et al., Somatic Cell Genet. 7:411 (1981)). […] The incorporated BrdU was detected using an anti-BrdU monoclonal antibody (Amersham Biosciences) and observed with a fluorescent microscope. […]
(§2) For cell proliferation assay, 2.4×10^5 cells per well were plated into 12-well plates. These cells were collected and counted daily for a week using a hematocytometer. […] For examining cellular replicative lifespan, the number of cells was counted at each passage, and the number of population doublings (PDL) achieved between passages was determined by log2 (number of cells obtained/number of cells inoculated)^29. […] The incorporated BrdU was detected using an anti-BrdU monoclonal antibody (Amersham Biosciences) and observed with a fluorescent microscope. […]

[3] = system: miR-34a; assay: real-time qRT-PCR of miR-34a expression; settings: for miR-34a expression at Δ133p53 knockdown-induced senescence: siRNA-transfected MRC-5 and WI-38
Method: (§3) RNA samples were prepared by using Trizol (Invitrogen). Reverse transcriptase reactions were performed using TagMan miRNA reverse transcription kit (Applied Biosystems, cat. no. 4366596) and a miR-34a-specific primer. The TagMan miRNA assay kit for miR-34a (Applied Biosystems, cat. no. 4373278) was used according to the supplier's protocol. Real-time PCR reactions were performed in triplicate. RNU66 (Applied Biosystems, cat. no. 4373382) was used as a control for quantification. Based on Ct (cycle threshold) values from miR-34a and RNU66 detections, normalized miR-34a expression was calculated by using the […] method according to the supplier's protocol (protocol no. 4310255B and User Bulletin no. 4303859B found on the world wide web at appliedbiosystems.com/index.cfm).
as §3, with “TaqMan microRNA” for “TagMan miRNA”

[4] = system: PAI-1; assay: real-time qRT-PCR of PAI-1 mRNA; settings: siRNA-transfected early-passage WI-38, day 7
Description: For quantitative measurement of PAI-1 mRNA, the SYBR Green PCR Master Mix (Applied Biosystems) was used with the following primers: 5′-CTC CTG GTT CTG CCC AAG T-3′ (SEQ ID NO:15) and 5′-CAGGTTCTCTAGGGGCTTCC-3′ (SEQ ID NO:16) for PAI-1; and 5′-TTC TGG CCT GGA GGC TAT C-3′ (SEQ ID NO:17) and 5′-TCAGGAAATTTGACTTTCCATTC-3′ (SEQ ID NO:18) for β-2 microglobulin as an internal control. For IL-8 and IL-8R, the Taqman Universal PCR Master Mix (Applied Biosystems) was used with the following sets of probe and primers purchased from Applied Biosystems: IL-8 (catalog #4331182, Hs00174103_m1); IL-8R (catalog #4331182, Hs001174304_m1); and 18S endogenous control (catalog #4319413).

[5] = system: caspase-3 and PARP; assay: apoptosis immunoblot of caspase-3 and PARP; settings: for cleaved caspase-3 or PARP (apoptosis): siRNA-transfected MRC-5 and WI-38
Method: Cells or tissues were lysed in RIPA buffer [10 mM Tris-HCl, pH 7.5, 150 mM NaCl, 0.1% SDS, 0.1% sodium deoxycholate, 1 mM EDTA, 1% NP-40, complete protease inhibitors (Roche, Indianapolis, Ind.), phoshatase inhibitor cocktail 1 and 2 (Sigma-Aldrich)]. SDS-PAGE, transfer to nitrocellulose or PVDF membranes (Bio-Rad, Hercules, Calif.), incubation with antibodies, and signal detection followed the standard procedures using ECL detection (Amersham Biosciences, Piscataway, N.J.) or SuperSignal West Dura Extended Duration system (Pierce Biotechnology, Rockford, Ill.). The quantitative analysis of the immunoblot data was performed using the ImageJ 1.40 g software (on the world wide web at rsb.info.nih.gov/ij/).
A polyclonal antibody specifically recognizing Δ133p53 (MAP4) was raised at Moravian Biotechnology (Brno, Czech Republic) in rabbits injected with a mixture of peptides, MFCQLAKTC (SEQ ID NO:13) and FCQLAKTCP (SEQ ID NO: 14), which were synthesized as Multiple Antigenic Peptide by Dr. G. Bloomberg (University of Bristol, Bristol, UK). The other primary antibodies used were: TLQ40^5 for p53β; CM1^5, DO-12 (Millipore, Billerica, Mass.) and DO-1 (Santa Cruz Biotechnology, Santa Cruz, Calif.) for p53; EA10 (Carbiochem, San Diego, Calif.) for p21^WAF1; SMP14 (Santa Cruz Biotechnology) for MDM2; 8G10 (Cell Signaling Technology, Danvers, Mass.) for caspase-3; M2 monoclonal antibody (Sigma-Aldrich) for FLAG tag; AC-15 (Sigma-Aldrich) for β-actin; MAB3450 (Chemicon International, Temecula, Calif.) for HP1-γ; anti-phospho-p53 (Ser15) (Cell Signaling Technology); anti-PARP (Cell Signaling Technology); FITC-conjugated anti-CD8 (BD Biosciences, Franklin Lakes, N.J.); APC-conjugated anti-CD28 (BD Biosciences); and PE-conjugated anti-CD57 (Abcam, Cambridge, Mass.). Horseradish peroxidase-conjugated goat anti-mouse or anti-rabbit antibodies (Santa Cruz Biotechnology) were used as secondary antibodies in immunoblots.

[6] = system: MRC-5 and WI-38 fibroblasts; assay: cellular senescence: senescent growth arrest, SA-β-gal staining; settings: siRNA-transfected early-passage MRC-5 and WI-38, day 7
[7] = system: hTERT/NHF cells; assay: Nutlin-3A-induced senescence, SA-β-gal assay; settings: 10 μM Nutlin-3A for 72 h
[8] = system: MRC-5 and WI-38 fibroblasts; assay: cellular replicative lifespan (cumulative population doublings)
Method: as §1, §2

| Molecule | p21^WAF1 expression [1] | BrdU incorporation [2] | miR-34a expression at Δ133p53 knockdown-induced senescence [3] | PAI-1 expression [4] | cleaved caspase-3 or PARP (apoptosis) [5] | SA-β-gal activity [6] | other results |
| --- | --- | --- | --- | --- | --- | --- | --- |
| 5′-UGUUCACUUGUGCCCUGACUUUCAA-3′ [Δ133si-1] | upregulation of p21^WAF1 | attenuation of BrdU incorporation | not upregulated | upregulation | No cleaved caspase-3 or PARP was observed | induction of SA-β-gal activity | – |
| 5′-AACAACCAGCUAAGACACUGCCA-3′ (antisense AACAACCAGCUAAGACACUGCCA; all 2'-O-methyl, backbone not given here) [antisense miR-34a] | – | – | – | – | – | – | miR-34a expression after antisense transfection ([3]; late-passage MRC-5, antisense 40 nM): downregulation of miR-34a expression was confirmed; inhibition of Nutlin-3A-induced senescence [7]: approximately 50%; replicative lifespan ([8]; late-passage MRC-5, antisense 40 nM transfected every 4 days): extended the replicative lifespan; extension of replicative lifespan ([8]; late-passage MRC-5 at passage 58, antisense transfected every 4 days): approximately five |
| 5′-CUU GUG CCC UGA CUU UCA A[dT][dT]-3′ [Δ133si-2] | upregulation of p21^WAF1 | attenuation of BrdU incorporation | not upregulated | upregulation | No cleaved caspase-3 or PARP was observed | induction of SA-β-gal activity | – |
| COc1ccc(C2=N[C@@H](c3ccc(Cl)cc3)[C@@H](c3ccc(Cl)cc3)N2C(=O)N2CCNC(=O)C2)c(OC(C)C)c1 [Nutlin-3a, reference compound] | – | – | – | – | – | – | miR-34a expression ([3]; hTERT/NHF cells, p53 shRNA, or 10 μM Nutlin-3a for 36 h): induced |
| COc1cccc2c1C(=O)c1c(O)c3c(c(O)c1C2=O)C[C@@](O)(C(=O)CO)C[C@@H]3O[C@H]1C[C@H](N)[C@H](O)[C@H](C)O1 [doxorubicin, reference compound] | – | – | – | – | – | – | apoptosis (caspase-3, PARP immunoblot) ([5]; RKO cells, positive control): showing apoptosis |
